According to patent US12655156B2, “Oxadiazolopyrazines and oxadiazolopyridines useful as mitochondrial uncouplers” (Virginia Tech Intellectual Properties, Inc., priority 2018, dated 2026):

system: whole cells (NMuLi, C2C12, and L6 cells, isolated cardiomyocytes, human primary fibroblasts); test: Oxygen consumption rate (OCR) in whole cells, Seahorse XF-24 Flux Analyzer; format: cell-based; details: increase in OCR; binned EC50 values
Procedure: Biological activities of the compounds synthesized is determined by determining increase in oxygen consumption rate (OCR).
Oxygen consumption rate (OCR) in whole cells is measured in general accordance with the method of Kenwood B M et al. (Mol. Met. (2014) 3:114-123).
OCR is measured using a Seahorse XF-24 Flux Analyzer (Seahorse Biosciences, North Billerica, MA). NMuLi, C2C12, and L6 cells are seeded in a Seahorse 24-well tissue culture plate at a density of 3.5×10^4 cells/well, isolated cardiomyocytes at a density of 4×10^4 cells/well, and human primary fibroblasts at a density of 1.1×10^4 cells/well. The cells are then allowed to adhere for 24 h. Prior to the assay, the media is changed to unbuffered DMEM containing pyruvate and glutamine (Gibco #12800-017, pH=7.4 at 37° C.) and the cells are equilibrated for 30 mins at 37°° C. Compounds are injected during the assay and OCR is measured using 2 min measurement periods.
2-3 wells are used per condition and averaged over three plates (n=6-9). Statistical significance is determined by two-way ANOVA with Bonferroni's posttest.
Activities are reported as binned EC50 values: A=5 μM or less; B=>5 to 20 μM; C=over 20 μM; NA=not active.

| SMILES | EC50 [µM] |
| --- | --- |
| CCCCC#Cc1ccc(Nc2nc3nonc3nc2O)c(OC(F)(F)F)c1 [1-65, 6-((4-(Hex-1-yn-1-yl)-2-(trifluoromethoxy)phenyl)amino)-[1,2,5]oxadiazolo[3,4-b]pyrazin-5-ol] | 5 to 20 |
| CCCCCc1ccc(Nc2nc3nonc3nc2O)c(OC(F)(F)F)c1 [1-69, 6-((4-Pentyl-2-(trifluoromethoxy)phenyl)amino)-[1,2,5]oxadiazolo[3,4-b]pyrazin-5-ol] | ≤ 5 |
| Oc1nc2nonc2nc1Nc1ccc(-c2cccc(C(F)(F)F)c2)cc1 [1-110, 6-((3′-(trifluoromethyl)-[1,1′-biphenyl]-4-yl)amino)-[1,2,5]oxadiazolo[3,4-b]pyrazin-5-ol] | 5 to 20 |
| Oc1nc2nonc2nc1Nc1ccccc1 [1-52, 6-(Phenylamino)-[1,2,5]oxadiazolo[3,4-b]pyrazin-5-ol] | > 20 |
| CCCC#Cc1ccc(Nc2nc3nonc3nc2O)c(OC(F)(F)F)c1 [1-64, 6-((4-(Pent-1-yn-1-yl)-2-(trifluoromethoxy)phenyl)amino)-[1,2,5]oxadiazolo[3,4-b]pyrazin-5-ol] | ≤ 5 |
| Oc1nc2nonc2nc1Nc1ccc(-c2ccc(C(F)(F)F)nc2)cc1 [1-107, 6-((4-(6-(trifluoromethyl)pyridin-3-yl)phenyl)amino)-[1,2,5]oxadiazolo[3,4-b]pyrazin-5-ol] | 5 to 20 |
| Cc1cc(Nc2nc3nonc3nc2O)ccc1OCC(F)(F)F [1-89, 6-((3-Methyl-4-(2,2,2-trifluoroethoxy)phenyl)amino)-[1,2,5]oxadiazolo[3,4-b]pyrazin-5-ol] | 5 to 20 |
| CCCCCCc1ccc(Nc2nc3nonc3nc2O)c(OC(F)(F)F)c1 [1-70, 6-((4-hexyl-2-(trifluoromethoxy)phenyl)amino)-[1,2,5]oxadiazolo[3,4-b]pyrazin-5-ol] | 5 to 20 |
| CC(C)(C)c1cccc(Nc2nc3nonc3nc2O)c1 [1-53, 6-((3-(tert-Butyl)phenyl)amino)-[1,2,5]oxadiazolo[3,4-b]pyrazin-5-ol] | ≤ 5 |
| Oc1nc2nonc2nc1Nc1ccc2c(c1)OCO2 [1-87, 6-(benzo[d][1,3]dioxol-5-ylamino)-[1,2,5]oxadiazolo[3,4-b]pyrazin-5-ol] | > 20 |
| Oc1nc2nonc2nc1Nc1ccc(-c2ccc(F)c(C(F)F)c2)cc1 [1-109, 6-((3′-(difluoromethyl)-4′-fluoro-[1,1′-biphenyl]-4-yl)amino)-[1,2.5]oxadiazolo[3.4-b]pyrazin-5-ol] | ≤ 5 |
| Cc1cc(OC(F)(F)F)ccc1Nc1nc2nonc2nc1O [1-32, 6-((2-Methyl-4-(trifluoromethoxy)phenyl)amino)-[1,2,5]oxadiazolo[3,4-b]pyrazin-5-ol] | ≤ 5 |
| Oc1nc2nonc2nc1Nc1ccc(OCC(F)(F)F)c(C(F)(F)F)c1 [1-91, 6-((4-(2,2,2-Trifluoroethoxy)-3-(trifluoromethyl)phenyl)amino)-[1,2,5]oxadiazolo[3,4-b]pyrazin-5-ol] | 5 to 20 |
| Oc1nc2nonc2nc1Nc1cccc(-c2ccc(C(F)(F)F)nc2)c1 [1-115, 6-((3-(6-(trifluoromethyl)pyridin-3-yl)phenyl)amino)-[1,2,5]oxadiazolo[3,4-b]pyrazin-5-ol] | > 20 |
| COc1cc(-c2ccc(Nc3nc4nonc4nc3O)cc2)ccc1F [1-128, 6-((4′-fluoro-3′-methoxy-[1,1′-biphenyl]-4-yl)amino)-[1,2,5]oxadiazolo[3,4-b]pyrazin-5-ol] | > 20 |
| Oc1nc2nonc2nc1Nc1cccc(-c2ccc3c(c2)OCO3)c1 [1-120, 6-((3-(benzo[d][1,3]dioxol-5-yl)phenyl)amino)-[1,2,5]oxadiazolo[3,4-b]pyrazin-5-ol] | ≤ 5 |
| Oc1nc2nonc2nc1Nc1cccc(S(F)(F)(F)(F)F)c1 [1-31, 6-((3-(Pentafluoro-16-sulfaneyl)phenyl)amino)-[1,2,5]oxadiazolo[3,4-b]pyrazin-5-ol] | ≤ 5 |
| Oc1nc2nonc2cc1Nc1cccc(C(F)(F)F)c1 [1-234, 6-((3-(trifluoromethyl)phenyl)amino)-[1,2,5]oxadiazolo[3,4-b]pyridin-5-ol] | > 20 |
| Oc1nc2nonc2nc1Nc1ccc(I)cc1OC(F)(F)F [1-35, 6-((4-Iodo-2-(trifluoromethoxy)phenyl)amino)-[1,2,5]oxadiazolo[3,4-b]pyrazin-5-ol] | ≤ 5 |
| CCCCCCc1ccc(Nc2nc3nonc3nc2O)c(F)c1 [1-67, 6-((2-Fluoro-4-hexylphenyl)amino)-[1,2,5]oxadiazolo[3,4-b]pyrazin-5-ol] | ≤ 5 |
| Oc1nc2nonc2cc1Nc1cccc(OC(F)(F)F)c1 [1-229, 6-((3-(trifluoromethoxy)phenyl)amino)-[1,2,5]oxadiazolo[3,4-b]pyridin-5-ol] | 5 to 20 |
| CC(=O)c1ccc(Nc2nc3nonc3nc2O)cc1 [1-47, 1-(4-((6-Hydroxy-[1,2,5]oxadiazolo[3,4-b]pyrazin-5-yl)amino)phenyl)ethan-1-one] | > 20 |

| SMILES | EC50 [µM] |
| --- | --- |
| Oc1nc2nonc2nc1Nc1ccc(-c2ccc3c(c2)OCO3)cc1 [1-122, 6-((4-(benzo[d][1,3]dioxol-5-yl)phenyl)amino)-[1,2,5]oxadiazolo[3,4-b]pyrazin-5-ol] | > 20 |
| Cc1cccc(C)c1Nc1nc2nonc2nc1O [1-56, 6-((2,6-Dimethylphenyl)amino)-[1,2,5]oxadiazolo[3,4-b]pyrazin-5-ol] | ≤ 5 |
| Oc1nc2nonc2nc1Nc1ccc(-c2cccc(OC(F)(F)F)c2)cc1 [1-111, 6-((3′-(trifluoromethoxy)-[1,1′-biphenyl]-4-yl)amino)-[1,2,5]oxadiazolo[3,4-b]pyrazin-5-ol] | 5 to 20 |
| Oc1nc2nonc2nc1Nc1ccc(OC(F)(F)F)cc1Br [1-38, 6-((2-Bromo-4-(trifluoromethoxy)phenyl)amino)-[1,2,5]oxadiazolo[3,4-b]pyrazin-5-ol] | ≤ 5 |
| O=[N+]([O-])c1cc(Nc2nc3nonc3nc2O)ccc1OC(F)(F)F [1-40, 6-((3-Nitro-4-(trifluoromethoxy)phenyl)amino)-[1,2,5]oxadiazolo[3,4-b]pyrazin-5-ol] | > 20 |
| Oc1nc2nonc2nc1Nc1ccccc1OC(F)(F)F [1-8, 6-((2-(Trifluoromethoxy)phenyl)amino)-[1,2,5]oxadiazolo[3,4-b]pyrazin-5-ol] | ≤ 5 |
| Oc1nc2nonc2nc1Nc1cccc(C(F)(F)F)c1F [1-37, 6-((2-Fluoro-3-(trifluoromethyl)phenyl)amino)-[1,2,5]oxadiazolo[3,4-b]pyrazin-5-ol] | ≤ 5 |
| Oc1nc2nonc2nc1Nc1ccc(-c2ccc(F)cc2)c(F)c1 [1-125, 6-((2,4′-difluoro-[1,1′-biphenyl]-4-yl)amino)-[1,2,5]oxadiazolo[3,4-b]pyrazin-5-ol] | ≤ 5 |
| Oc1nc2nonc2nc1Nc1cccc2ccccc12 [1-50, 6-(Naphthalen-1-ylamino)-[1,2,5]oxadiazolo[3,4-b]pyrazin-5-ol] | 5 to 20 |
| O=C1c2ccccc2-c2ccc(Nc3nc4nonc4nc3O)cc21 [1-127, 2-((6-hydroxy-[1,2,5]oxadiazolo[3,4-b]pyrazin-5-yl)amino)-9H-fluoren-9-one] | > 20 |
| Oc1nc2nonc2cc1Nc1cccc(C(F)(F)F)c1F [1-232, 6-((2-fluoro-3-(trifluoromethyl)phenyl)amino)-[1,2,5]oxadiazolo[3,4-b]pyridin-5-ol] | > 20 |
| Cc1ccc(-c2cccc(Nc3nc4nonc4nc3O)c2)cc1 [1-132, 6-((4′-methyl-[1,1′-biphenyl]-3-yl)amino)-[1,2,5]oxadiazolo[3,4-b]pyrazin-5-ol] | ≤ 5 |
| Cc1ccc(Nc2nc3nonc3nc2O)cc1C [1-60, 6-((3,4-Dimethylphenyl)amino)-[1,2,5]oxadiazolo[3,4-b]pyrazin-5-ol] | 5 to 20 |
| Oc1nc2nonc2nc1NC1C2CC3CC(C2)CC1C3 [1-85, 6-(((1R,3R,5R,7R)-adamantan-2-yl)amino)-[1,2,5]oxadiazolo[3,4-b]pyrazin-5-ol] | > 20 |
| Oc1nc2nonc2nc1Nc1ccc(-c2cccs2)cc1 [1-106, 6-((4-(thiophen-2-yl)phenyl)amino)-[1,2,5]oxadiazolo[3,4-b]pyrazin-5-ol] | 5 to 20 |
| Oc1nc2nonc2nc1Nc1ccc(OCCCC(F)(F)F)c(F)c1 [1-99, 6-((3-fluoro-4-(4,4,4-trifluorobutoxy)phenyl)amino)-[1,2,5]oxadiazolo[3,4-b]pyrazin-5-ol] | ≤ 5 |
| Oc1nc2nonc2nc1Nc1ccc(I)cc1 [1-19, 6-((4-Iodophenyl)amino)-[1,2,5]oxadiazolo[3,4-b]pyrazin-5-ol] | 5 to 20 |
| Oc1nc2nonc2nc1Nc1cc(C(F)(F)F)ccc1F [1-17, 6-((2-Fluoro-5-(trifluoromethyl)phenyl)amino)-[1,2,5]oxadiazolo[3,4-b]pyrazin-5-ol] | 5 to 20 |
| Oc1nc2nonc2nc1Nc1ccc(OC(F)(F)F)cc1Cl [1-41, 6-((2-Chloro-4-(trifluoromethoxy)phenyl)amino)-[1,2,5]oxadiazolo[3,4-b]pyrazin-5-ol] | ≤ 5 |
| Cc1ccc(Nc2nc3nonc3nc2O)cc1 [1-58, 6-(p-Tolylamino)-[1,2,5]oxadiazolo[3,4-b]pyrazin-5-ol] | > 20 |
| Oc1nc2nonc2nc1Nc1cccc(-c2ccc(OC(F)F)cc2)c1 [1-113, 6-((4′-(difluoromethoxy)-[1,1′-biphenyl]-3-yl)amino)-[1,2,5]oxadiazolo[3,4-b]pyrazin-5-ol] | ≤ 5 |
| Oc1nc2nonc2nc1NC(c1ccccc1)c1ccccc1 [1-79, 6-(benzhydrylamino)-[1,2,5]oxadiazolo[3,4-b]pyrazin-5-ol] | > 20 |
